From paper PMC10551024, “A deazariboflavin chromophore kinetically stabilizes reduced FAD state in a bifunctional cryptochrome” (Scientific Reports, 2023) come the findings set out here.

Format in all cases: binding
In experiment [1] the target is T1, At64 (Arabidopsis thaliana, UniProt O48652, DEL46-53).
T1 construct: gene UVR3; recombinant, pET-28a(+), E. coli C41(DE3)/pLysS
T1 sequence (O48652 with tags, fused parts or gaps DEL46-53): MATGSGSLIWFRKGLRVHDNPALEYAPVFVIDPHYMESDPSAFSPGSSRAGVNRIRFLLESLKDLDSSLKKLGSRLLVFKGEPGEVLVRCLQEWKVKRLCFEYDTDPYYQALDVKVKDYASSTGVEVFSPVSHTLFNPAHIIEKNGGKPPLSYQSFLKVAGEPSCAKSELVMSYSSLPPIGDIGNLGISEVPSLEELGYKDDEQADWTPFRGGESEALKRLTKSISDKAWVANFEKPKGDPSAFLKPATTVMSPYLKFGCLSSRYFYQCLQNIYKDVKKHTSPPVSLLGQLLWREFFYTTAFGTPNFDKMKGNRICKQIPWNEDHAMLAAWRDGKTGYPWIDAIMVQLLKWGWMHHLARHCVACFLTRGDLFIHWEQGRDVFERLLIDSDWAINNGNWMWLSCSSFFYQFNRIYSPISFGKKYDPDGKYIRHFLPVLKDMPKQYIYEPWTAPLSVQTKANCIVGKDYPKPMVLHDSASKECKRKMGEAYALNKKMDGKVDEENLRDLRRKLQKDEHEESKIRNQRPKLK
As to the kind of experiment: UV/vis spectroscopy of purified holoprotein; xanthine/xanthine oxidase redox titration. The settings on record: At64-ΔExLoop, extended loop Ser46 to Pro53 deleted; co-purified FAD; pH 7.0, Safranin T reference.

The target of experiment [2] is T2, Xl64 (Xenopus laevis, UniProt Q9I910).
T2 construct: gene Xl64phr; recombinant, pET-28a(+), E. coli C41(DE3)/pLysS
T2 sequence (Q9I910 1-526): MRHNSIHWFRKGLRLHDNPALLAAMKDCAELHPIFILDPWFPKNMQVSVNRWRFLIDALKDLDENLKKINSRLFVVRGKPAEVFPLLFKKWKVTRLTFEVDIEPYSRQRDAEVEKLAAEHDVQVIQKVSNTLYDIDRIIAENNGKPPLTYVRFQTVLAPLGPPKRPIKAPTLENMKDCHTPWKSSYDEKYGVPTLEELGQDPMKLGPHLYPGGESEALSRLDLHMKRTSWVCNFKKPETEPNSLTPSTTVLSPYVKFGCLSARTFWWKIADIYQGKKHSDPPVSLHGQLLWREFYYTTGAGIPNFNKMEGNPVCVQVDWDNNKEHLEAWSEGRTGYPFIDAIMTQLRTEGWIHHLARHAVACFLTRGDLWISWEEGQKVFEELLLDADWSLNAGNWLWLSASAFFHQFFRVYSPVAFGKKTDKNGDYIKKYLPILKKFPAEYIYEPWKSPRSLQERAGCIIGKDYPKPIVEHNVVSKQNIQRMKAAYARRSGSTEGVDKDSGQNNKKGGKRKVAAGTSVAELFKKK
The description is as above. The settings on record: co-purified FAD; pH 7.0, Safranin T reference.

The target in experiment [3] is T3, At64 (Arabidopsis thaliana, UniProt O48652).
T3 construct: gene UVR3; recombinant, pET-28a(+), E. coli C41(DE3)/pLysS
T3 sequence (O48652 20-556): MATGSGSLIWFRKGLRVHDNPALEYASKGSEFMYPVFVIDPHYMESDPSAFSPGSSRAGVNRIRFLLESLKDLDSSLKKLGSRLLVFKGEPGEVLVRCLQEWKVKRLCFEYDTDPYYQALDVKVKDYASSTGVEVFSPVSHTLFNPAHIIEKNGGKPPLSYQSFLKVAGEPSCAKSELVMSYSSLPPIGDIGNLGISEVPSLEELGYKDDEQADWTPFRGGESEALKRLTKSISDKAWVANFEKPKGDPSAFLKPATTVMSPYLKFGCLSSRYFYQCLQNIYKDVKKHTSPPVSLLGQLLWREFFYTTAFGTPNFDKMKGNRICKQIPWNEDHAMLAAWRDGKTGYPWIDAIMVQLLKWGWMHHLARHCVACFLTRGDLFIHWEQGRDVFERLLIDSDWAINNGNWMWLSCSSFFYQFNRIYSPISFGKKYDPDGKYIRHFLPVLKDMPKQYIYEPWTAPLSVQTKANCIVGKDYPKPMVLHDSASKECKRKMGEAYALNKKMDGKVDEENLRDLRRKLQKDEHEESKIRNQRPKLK
Described as above. The settings on record: co-purified FAD; pH 7.0, Safranin T reference.

Experiment [4] deals with T4, CraCRY (Chlamydomonas reinhardtii, UniProt A8J8W0).
T4 construct: gene CHLRE_06g278251v5; lacks C-terminal tail (497-595); His-tagged, pET-28a(+), E. coli BL21(DE3); TALON and heparin purified
T4 sequence (A8J8W0 1-496): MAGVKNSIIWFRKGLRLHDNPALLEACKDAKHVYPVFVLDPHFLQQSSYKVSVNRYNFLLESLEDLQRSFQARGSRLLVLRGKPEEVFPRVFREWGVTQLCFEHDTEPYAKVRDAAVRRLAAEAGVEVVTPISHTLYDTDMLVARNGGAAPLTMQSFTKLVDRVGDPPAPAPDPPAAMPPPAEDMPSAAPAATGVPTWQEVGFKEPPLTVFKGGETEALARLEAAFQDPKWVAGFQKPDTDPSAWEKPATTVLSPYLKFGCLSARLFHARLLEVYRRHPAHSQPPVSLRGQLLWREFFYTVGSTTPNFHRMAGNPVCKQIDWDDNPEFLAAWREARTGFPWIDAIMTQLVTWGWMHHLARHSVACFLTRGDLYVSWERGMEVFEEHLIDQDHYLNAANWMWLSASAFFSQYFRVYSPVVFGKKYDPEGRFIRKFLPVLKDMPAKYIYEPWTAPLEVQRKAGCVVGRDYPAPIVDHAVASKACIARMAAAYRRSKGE
Described as above. Conditions: co-purified FAD; pH 7.0, Safranin T reference.

Experiment [5] deals with T2, Xl64. The experiment can be described thus: UV/vis absorption after incubation and gel filtration. The settings on record: synthetic 8-HDF, 100 µM with 20 µM protein, on ice; secondary pocket, antenna chromophore; protein holds FAD. For orientation: In gel filtration, larger molecules generally elute earlier.
Experiment [6] deals with T4, CraCRY. The description is as above. The settings on record: synthetic 8-HDF, 100 µM with 20 µM protein, on ice; secondary pocket, antenna chromophore; protein holds FAD.

Turning to `Cc1cc2nc3c(=O)[nH]c(=O)nc-3n(C[C@H](O)[C@H](O)[C@H](O)COP(=O)(O)OP(=O)(O)OC[C@H]3O[C@@H](n4cnc5c(N)ncnc54)[C@H](O)[C@@H]3O)c2cc1C` [FAD, flavin adenine dinucleotide], the “UV/vis spectroscopy of purified holoprotein; xanthine/xanthine oxidase redox tit” value in experiment [1] was “the deletion of the extended loop did not affect the FAD binding site”; in experiment [2], “the Em,FAD values of the tested proteins (Xl64, At64, and CraCRY) were identical”; in experiment [3], “the Em,FAD values of the tested proteins (Xl64, At64, and CraCRY) were identical”; in experiment [4], “the Em,FAD values of the tested proteins (Xl64, At64, and CraCRY) were identical”.

`O=c1nc2n(C[C@H](O)[C@H](O)[C@H](O)CO)c3cc(O)ccc3cc-2c(=O)[nH]1` [8-HDF, 8-hydroxy-7,8-didemethyl-5-deazariboflavin]: the results for the “absorption maximum of the complex” value in experiment [5] and in experiment [6] were 441 nm and 448 nm, respectively.
